{"source": "patent US11147797B2", "about": "“Photodynamic therapeutic compounds and photodynamic methods of treatment” (SALT AND LIGHT PHARMACEUTICALS PTY. LTD., priority 2016, dated 2021)", "key": {"[1]": {"tested_on": "binding between Ras and Ras-binding domain (RBD) of Rafl", "assay": "Ras pulldown with inhibitor interference (Active Ras PullDown and Detection Kit, Western blot)", "text": "1.5.1 Ras pulldown with inhibitor interference: Inhibition of compounds on binding between Ras and Ras-binding domain (RBD) of Rafl was firstly analysed using Active Ras PullDown and Detection Kit (Thermofisher Scientific, Catalogue no 16117). The protocol was in accordance with the manual supplied with the kit. Western blot analysis was used to measure the inhibition. The known Inhibitor Kobe0065 was purchased from Focus Biosciences, Australia (www.focusbio.com.au) and used as the positive control."}, "[2]": {"tested_on": "Ras-Raf binding", "assay": "Ras activation ELIZA kit assay (chemiluminescent)", "method": "1.5.2 ELIZA Assay: Another method to detect the inhibition of the Representative Compounds used a Ras activation ELIZA kit (Merck Millipore, Cat no 17-497). The protocol was in accordance with the manual provided with the kit. The inhibition was measured using a Chemiluminescent imaging system. The known inhibitor Kobe0065 was purchased from Focus Biosciences, Australia (www.focusbio.com.au) and used as the positive control."}, "[3]": {"assay": "Absorption spectrum", "format": "physicochemical", "conditions": "compound 10 μM; long wavelength range", "method": "1.4 Absorption spectrum: The absorption spectra of the Representative Compounds were acquired. The concentration of compound was 10 μM."}, "[4]": {"tested_on": "HCT-116 cells", "assay": "Cell proliferation assay (Cell Titre-Blue Cell Viability Assay)", "format": "cell-based", "conditions": "Homo sapiens; HCT-116 colon-cancer cell line; FIG. 9, FIG. 10; read-out: IC50, inhibition of cell growth of HCT-116", "method": "1.8 Cells: Human cell lines were obtained from the NIH cell culture and cultured in media recommended by supplier.\n1.9: Cell Proliferation Assays: Cells (2-3000) were seeded in a 96-well plate and cultured in McCoy's 5 containing 10% (vol/vol) FBS in the presence of one of compounds. Viable cell numbers were measured using a fluorometric kit (“Cell Titre-Blue Cell Viability Assay”: Promega Inc, USA). The viable cells convert blue colour dye to red/pink after incubating at 37 degrees with 5% CO2."}}, "data": [{"smiles": "Cc1ccc(NC(=S)NNc2c([N+](=O)[O-])cc(C(F)(F)F)cc2[N+](=O)[O-])cc1Cl", "note": "[Kobe0065, reference compound]", "values": [{"measurement": "Ras-Raf inhibition, Ras pulldown", "setting": "[1]; 10 uM compound", "value": 0, "unit": "%"}, {"measurement": "Ras-Raf inhibition, Ras pulldown", "setting": "[1]; 50 uM compound", "value": 76, "unit": "%"}, {"measurement": "Ras-Raf inhibition, ELIZA", "setting": "[2]; 10 uM compound", "value": 66.8, "unit": "%"}, {"measurement": "Ras-Raf inhibition, ELIZA", "setting": "[2]; 50 uM compound", "value": 73.11, "unit": "%"}, {"measurement": "IC50", "setting": "[2]; estimated from Table 2, read-out: inhibition IC50, Ras activation ELIZA assay", "value": "< 10", "unit": "µM"}]}, {"smiles": "C1=Cc2nc1c(-c1ccncc1)c1ccc([nH]1)c(-c1ccncc1)c1nc(c(-c3ccncc3)c3ccc([nH]3)c2-c2ccncc2)C=C1", "note": "[Representative Compound 1]", "values": [{"measurement": "Ras-Raf inhibition, Ras pulldown", "setting": "[1]; 10 uM compound", "value": 0, "unit": "%"}, {"measurement": "Ras-Raf inhibition, Ras pulldown", "setting": "[1]; 50 uM compound", "value": 76.5, "unit": "%"}, {"measurement": "IC50", "setting": "[1]; estimated from Table 2, read-out: inhibition IC50, Ras pulldown assay", "value": "10 to 50", "unit": "µM"}, {"measurement": "Ras-Raf inhibition, ELIZA", "setting": "[2]; 10 uM compound", "value": 34.61, "unit": "%"}, {"measurement": "Ras-Raf inhibition, ELIZA", "setting": "[2]; 50 uM compound", "value": 35.73, "unit": "%"}, {"measurement": "inhibition in Ras activation ELIZA assay compared with Ras pulldown assay", "setting": "[2]; in words", "value": "much weaker"}]}, {"smiles": "C[n+]1cccc(-c2c3nc(c(-c4ccccc4)c4ccc(cc5nc(c(-c6ccccc6)c6ccc2[nH]6)C=C5)[nH]4)C=C3)c1.[I-]", "note": "[Representative Compound 10, 3-(10,20-diphenylporphyrin-5-yl)-1-methylpyridin-1-ium iodide]", "values": [{"measurement": "absorption band", "setting": "[3]", "value": 637, "unit": "nm"}, {"measurement": "IC50", "setting": "[4]", "value": "20 to 25", "unit": "µM"}, {"measurement": "Ras-Raf inhibition, ELIZA", "setting": "[2]; 10 uM compound", "value": 35.2, "unit": "%"}, {"measurement": "Ras-Raf inhibition, ELIZA", "setting": "[2]; 50 uM compound", "value": 13.4, "unit": "%"}]}]}
